Data as given in US20070082893A1, “Active substance combination” (LABORATORIOS DEL DR. ESTEVE S.A, priority 2004, published 2007).

How the values were obtained:
[1] = tested on: male Swiss mice; assay: Hot plate test in mice; assay type: in vivo; conditions: hot plate 55° C., Cizolirtine (as Citrate salt) 20 mg/kg i.p., Morphine 5 mg/kg s.c., combination 20 + 5 mg/kg; for % Analgesic activity 0.5 hours: 0.5 hours after administration; for % Analgesic activity 1 hour: 1 hour after administration; for % Analgesic activity 2 hours: 2 hours after administration
Protocol: The analgesic activity of the inventive active substance combination is determined in male Swiss mice (weight 20-25 g, Harlan Iberica, S. Feliu de Codinas, Barcelona, Spain) as described in the publication of G. Woolfe and A. D. MacDonald, J. Pharm. Exp. Ther. 1944, 80, pages 300-307. The respective description of this publication is incorporated by reference and forms part of the present disclosure.
According to this test the mice are put onto a plate, which is heated to 55° C. and the time is determined until the mice show signs of pain such as vigorous and repeated licking of the paws, jumping or pulling back the paws. The mice are kept on the hot plate for no longer than 40 seconds in order to avoid the development of cutaneous lesions. At first the untreated mice are subjected to the hot-plate test to determine a baseline for their pain induced behaviour. After 10 minutes the vehicle, the active substances and the inventive active substance combination to be tested are administered to different groups of mice. 0.5 hours, 1 hour and 2 hours after the administration the animals are put onto the hot plate and the time is measured until they show signs of pain. The analgesic efficacy of the active substances or active substance combination is calculated on the basis of the values obtained for the comparison group of mice which is only administered the vehicle.

[2] = tested on: male Swiss albino mice
Protocol: Pharmacodyn. 1971, 190, pages 213-218 in male Swiss albino mice (weight 20-25 g, Harlan Iberica, S. Feliu de Codinas, Barcelona, Spain).
Opioid dependency is developed in the mice by intraperitoneal administration of the opioid in a suitable dose known to those skilled in the art, e.g. 5 mg/kg/day for 4 consecutive days for morphine. Withdrawal symptoms are then induced by the intravenous administration of a suitable opioid antagonist in a dose known to those skilled in the art, for example, 2 mg/kg naloxone in case of morphine, 30 minutes after the administration of the final dose of the opioid is completed.
In the 30 minute period following the naloxone administration the mice show typical withdrawal symptoms, namely jumps and shakes (of the wet dog shake type), which are counted and registered.
The active substance combination is also administered to the mice for 4 consecutive days. After the administration of 2 mg/kg naloxone 30 minutes after the administration of the final dose of the active substance combination has been completed, the mice are closely watched for withdrawal symptoms, namely jumps and shakes (of the wet dog shake type), which are then counted and registered.
The influence of the active substance combination on withdrawal symptoms has been determined as described above.

[3] = 30 minute period after 2 mg/kg naloxone, Morphine 5 mg/kg/day s.c. over 4 days, alone or with Cizolirtine citrate 40 mg/kg/day i.p.

## CN(C)CCOC(c1ccccc1)c1ccnn1C.O=C(O)CC(O)(CC(=O)O)C(=O)O (racemic) [Cizolirtine, (±)-5-[α-[2-(Dimethylamino)ethoxy]benzyl]-1-methyl-1H-pyrazole citrate]
[1]
  % Analgesic activity 0.5 hours: 25.8%
  % Analgesic activity 1 hour: 17.1%
  % Analgesic activity 2 hours: 23.4%
[2]; table B, co-administered with morphine, opioid amount not reduced
  withdrawal symptoms associated with morphine on co-administration (in words): significantly reduced

## CN1CC[C@]23c4c5ccc(O)c4O[C@H]2[C@@H](O)C=C[C@H]3[C@H]1C5 [Morphine]
[1]
  % Analgesic activity 0.5 hours: 48.6%
  % Analgesic activity 1 hour: 34.8%
  % Analgesic activity 2 hours: 15.8%
[2]; [3]
  Number of jumps: 6.6
  Number of shakes: 16.3
